According to US5871949A, “Method of quantitative assay for 1,5-anhydroglucitol and reagent for quantitative assay” (Daiichi Pure Chemicals Co., Ltd., priority 1996, dated 1999):

Assays:
Type in all cases: biochemical, Agrobacterium tumefaciens NT 1130
[1] = system: 1,5-AG dehydrogenase; test: Substrate specificity of 1,5-AG dehydrogenase (relative activity on various sugars); settings: substrate final concentration 5 mM; for Relative activity (substrate specificity): 1,5-AG = 100, nitrotetrazolium blue, pH 8.0, 37° C.
Description: The activity of the 1,5-AG dehydrogenase is measured in the following way. That is, 3.0 ml in total of an enzyme-containing solution comprised of 1.5 ml of 0.2M potassium phosphate buffer (pH 8.0), 0.3 ml of 0.25% by weight nitrotetrazolium blue, 0.3 ml of 2% by weight nonionic surface-active agent, 0.3 ml of an aqueous 50 mM 1,5-AG solution, 0.45 ml of water and 0.15 ml of an enzyme solution is reacted at 37° C., and a change in absorbance (ΔmOD/min) at 540 nm is measured. The molecular extinction coefficient (or molar absorption coefficient) of a formazan dye formed under such conditions is given as 16.7×10^3 and the quantity of the enzyme capable of forming 1 μmol of formazan in one minute is regarded as one unit, where the activity of the 1,5-AG dehydrogenase is determined according to the following expression; [formula] (1) Activity:
Relative activities (substrate specificity) of instances where the 1,5-AG was replaced with various sugar solutions (all having a final concentration of 5 mM) in the above method of measuring the enzymatic activity are shown in Table 2.

[2] = system: 1,5-AG dehydrogenase; test: Electron acceptor utilisation by 1,5-AG dehydrogenase (relative activity); settings: 100 mM potassium phosphate buffer pH 8.0
Description: In 100 mM of the potassium phosphate buffer (pH 8.0), various electron acceptors were made present together with the present enzyme, where the activities on the respective electron acceptors were indicated as relative activities, which were as shown in Table 3.

[3] = system: 1,5-AG dehydrogenase; test: Km value by Lineweaver-Burk plot; settings: read-out: Km value with respect to 1,5-AG
Description: The Km value of the present enzyme with respect to 1,5-AG was determined by the Lineweaver-Burk plot to reveal that it was about 0.5 mM.

O=C[C@H](O)[C@@H](O)[C@H](O)[C@H](O)CO [D-glucose]
Action of the enzyme on the substrate (in words) [1]: slightly acted | Relative activity (substrate specificity) [1]: 11

OC[C@@H](O)[C@@H](O)[C@H](O)[C@@H](O)CO [Glucitol]
Relative activity (substrate specificity) [1]: 0

O=O [Oxygen]
Relative activity (electron acceptor) ([2]; dissolved oxygen): 0%

O=C[C@H](O)[C@@H](O)[C@@H](O)[C@H](O)CO [D-galactose]
Relative activity (substrate specificity) [1]: 0

O=C(CO)[C@@H](O)[C@H](O)[C@@H](O)CO [L-sorbose]
Action of the enzyme on the substrate (in words) [1]: weakly acted | Relative activity (substrate specificity) [1]: 25

NC(=O)c1ccc[n+]([C@@H]2O[C@H](COP(=O)([O-])OP(=O)(O)OC[C@H]3O[C@@H](n4cnc5c(N)ncnc54)[C@H](OP(=O)(O)O)[C@@H]3O)[C@@H](O)[C@H]2O)c1 [NADP]
Relative activity (electron acceptor) ([2]; acceptor 1.0 mM): 0%

O=C1C(Cl)=CC(=Nc2ccc(O)cc2)C=C1Cl [2,6-Dichlorophenolindophenol]
Relative activity (electron acceptor) ([2]; acceptor 0.1 mM): 100%

O[C@H]1[C@H](O)[C@@H](O)[C@H](O)[C@@H](O)[C@H]1O [Myoinocitol]
Relative activity (substrate specificity) [1]: 0

OC[C@H]1OC[C@H](O)[C@@H](O)[C@@H]1O [1,5-AG, 1,5-anhydroglucitol]
Action of the enzyme on the substrate (in words) [1]: strongly acted | Relative activity (substrate specificity) [1]: 100 | Km [3]: ~500 µM

OC[C@H]1O[C@H](O[C@H]2[C@H](O)[C@@H](O)C(O)O[C@@H]2CO)[C@H](O)[C@@H](O)[C@@H]1O (mixture of isomers) [Maltose]
Relative activity (substrate specificity) [1]: 0

O=C(CO)[C@@H](O)[C@H](O)[C@H](O)CO [D-fructose]
Relative activity (substrate specificity) [1]: 2

COc1cc(-c2ccc(-[n+]3nc(-c4ccccc4)nn3-c3ccc([N+](=O)[O-])cc3)c(OC)c2)ccc1-[n+]1nc(-c2ccccc2)nn1-c1ccc([N+](=O)[O-])cc1 [Nitrotetrazolium blue]
Relative activity (electron acceptor) ([2]; acceptor 1.0 mM): 53%

NC(=O)c1ccc[n+]([C@@H]2O[C@H](COP(=O)([O-])OP(=O)(O)OC[C@H]3O[C@@H](n4cnc5c(N)ncnc54)[C@H](O)[C@@H]3O)[C@@H](O)[C@H]2O)c1 [NAD, nicotinamide adenine dinucleotide]
Relative activity (electron acceptor) ([2]; acceptor 1.0 mM): 0%
